Experimental data from patent publication US20240166652A1, “MODULATORS OF THE INTEGRATED STRESS PATHWAY” (Calico Life Sciences LLC, priority 2017, published 2024).

Test system: ATF4 luciferase reporter in HEK293T cells
Assay: ATF4-Luc assay (ATF4 luciferase reporter, tunicamycin-treated HEK293T cells)
Format: cell-based, human
Details: Homo sapiens, HEK-293T; HEK293T cells carrying the ATF4 luciferase reporter, 1 μg/mL tunicamycin, 7 hours

SMILES | EC50 [nM]
Cc1ccc(OCC(=O)NC23CC(NC(=O)COc4ccc(Cl)c(F)c4)(C2)C3)c(Cl)n1 [Compound 237, 2-(4-chloro-3-fluorophenoxy)-N-(3-{2-[(2-chloro-6-methylpyridin-3-yl)oxy]acetamido}bicyclo[1.1.1]pentan-1-yl)acetamide] | 50 to 250
O=C(COc1ccc(Cl)c(F)c1)NC12CCC(NC(=O)COc3noc4ccccc34)(CC1)[C@@H](O)C2 [Compound 515, 2-[(1,2-benzoxazol-3-yl)oxy]-N-{(2S)-4-[2-(4-chloro-3-fluorophenoxy)acetamido]-2-hydroxybicyclo[2.2.2]octan-1-yl}acetamide] | < 10
O=C(COc1ccc(Cl)c(F)c1)NC12CCC(NC(=O)COc3ccc(Cl)c(F)c3)(CC1)C(Br)C2=O (stereo not shown) [Compound 572, N,N′-(2-bromo-3-oxobicyclo[2.2.2]octane-1,4-diyl)bis[2-(4-chloro-3-fluorophenoxy)acetamide]] | 10 to 50
O=C(COc1ccc(Cl)c(F)c1)NC12CCC(NC(=O)COc3ccc(F)c(OC(F)F)c3)(CC1)[C@@H](O)C2 [Compound 795, 2-(4-chloro-3-fluorophenoxy)-N-[(3S)-4-{2-[3-(difluoromethoxy)-4-fluorophenoxy]acetamido}-3-hydroxybicyclo[2.2.2]octan-1-yl]acetamide] | < 10
O=C(COc1ccc(OC(F)(F)F)cc1)NC12CCC(NC(=O)COc3ccc(Cl)c(F)c3)(CC1)[C@@H](O)C2 [Compound 473, 2-(4-chloro-3-fluorophenoxy)-N-[(2S)-2-hydroxy-4-{2-[4-(trifluoromethoxy)phenoxy]acetamido}bicyclo[2.2.2]octan-1-yl]acetamide] | < 10
CS(=O)(=O)c1cc(OCC(=O)NC23CCC(NC(=O)COc4ccc(Cl)c(F)c4)(CC2)[C@@H](O)C3)ccc1F [Compound 826, 2-(4-chloro-3-fluorophenoxy)-N-[(2S)-4-{2-[4-fluoro-3-(methanesulfonyl)phenoxy]acetamido}-2-hydroxybicyclo[2.2.2]octan-1-yl]acetamide] | 50 to 250
O=C(COc1cccc(F)c1)NC12CC(NC(=O)COc3ccc(Cl)c(F)c3)(C1)C2 [Compound 410, 2-(4-chloro-3-fluorophenoxy)-N-{3-[2-(3-fluorophenoxy)acetamido]bicyclo[1.1.1]pentan-1-yl}acetamide] | < 10
COc1ccc(/C=C/C(=O)NC23CC(NC(=O)COc4ccc(Cl)c(F)c4)(C2)C3)cc1 [Compound 347, (2E)-N-{3-[2-(4-chloro-3-fluorophenoxy)acetamido]bicyclo[1.1.1]pentan-1-yl}-3-(4-methoxyphenyl)prop-2-enamide] | 250 to 500
CS(=O)(=O)c1ccc(OCC(=O)NC23CCC(NC(=O)COc4ccc(F)c(F)c4)(CC2)[C@@H](O)C3)cc1F [Compound 768, 2-(3,4-difluorophenoxy)-N-[(2S)-4-{2-[3-fluoro-4-(methanesulfonyl)phenoxy]acetamido}-2-hydroxybicyclo[2.2.2]octan-1-yl]acetamide] | 50 to 250
N#Cc1ccc(COCC(=O)NC23CC(NC(=O)COc4ccc(Cl)c(F)c4)(C2)C3)cn1 [Compound 283, 2-(4-chloro-3-fluorophenoxy)-N-(3-{2-[(6-cyanopyridin-3-yl)methoxy]acetamido}bicyclo[1.1.1]pentan-1-yl)acetamide] | 500 to 2000
O=C(COc1ccc(Cl)cc1)NC12CCC(NC(=O)COc3ccc(OC(F)(F)F)c(F)c3)(CC1)CC2 [Compound 741, 2-(4-chlorophenoxy)-N-(4-{2-[3-fluoro-4-(trifluoromethoxy)phenoxy]acetamido}bicyclo[2.2.2]octan-1-yl)acetamide] | 10 to 50
O=C(COc1ccc(Cl)c(F)c1)NC12CCC(NC(=O)COc3nc4ccccc4s3)(CC1)[C@@H](O)C2 [Compound 512, 2-[(1,3-benzothiazol-2-yl)oxy]-N-{(2S)-4-[2-(4-chloro-3-fluorophenoxy)acetamido]-2-hydroxybicyclo[2.2.2]octan-1-yl}acetamide] | > 2000
O=C(COc1ccc(Cl)c(F)c1)NC12CCC(NC(=O)COc3nc(N4CCCCC4)nc(N4CCCCC4)n3)(CC1)[C@@H](O)C2 [Compound 523, 2-(4-chloro-3-fluorophenoxy)-N-[(3S)-4-(2-{[4,6-di(piperidin-1-yl)-1,3,5-triazin-2-yl]oxy}acetamido)-3-hydroxybicyclo[2.2.2]octan-1-yl]acetamide] | > 2000
Cc1cc(F)ncc1OCC(=O)NC12CC(NC(=O)COc3ccc(Cl)c(F)c3)(C1)C2 [Compound 247, 2-(4-chloro-3-fluorophenoxy)-N-(3-{2-[(6-fluoro-4-methylpyridin-3-yl)oxy]acetamido}bicyclo[1.1.1]pentan-1-yl)acetamide] | 50 to 250
O=C(COc1ccc(Cl)cc1)NC12CCC(NC(=O)COc3ccc(Cl)c(F)c3)(CC1)[C@@H](O)C2 [Compound 437, 2-(4-chloro-3-fluorophenoxy)-N-{(2S)-4-[2-(4-chlorophenoxy)acetamido]-2-hydroxybicyclo[2.2.2]octan-1-yl}acetamide] | < 10
O=C(COc1ccc(Cl)c(F)c1)NC12CCC(NC(=O)COc3ccc(C(F)(F)F)c(F)c3)(CC1)[C@@H](O)C2 [Compound 832, 2-(4-chloro-3-fluorophenoxy)-N-[(3S)-4-{2-[3-fluoro-4-(trifluoromethyl)phenoxy]acetamido}-3-hydroxybicyclo[2.2.2]octan-1-yl]acetamide] | < 10

SMILES | EC50 [nM]
O=C(COc1nccs1)NC12CCC(NC(=O)COc3ccc(Cl)c(F)c3)(CC1)[C@@H](O)C2 [Compound 577, 2-(4-chloro-3-fluorophenoxy)-N-[(2S)-2-hydroxy-4-{2-[(1,3-thiazol-2-yl)oxy]acetamido}bicyclo[2.2.2]octan-1-yl]acetamide] | > 2000
CC(C)(C)OC(=O)CN(CCOc1ccc(Cl)c(F)c1)C12CC(NC(=O)COc3ccc(Cl)c(F)c3)(C1)C2 [Compound 688, tert-butyl ({3-[2-(4-chloro-3-fluorophenoxy)acetamido]bicyclo[1.1.1]pentan-1-yl}[2-(4-chloro-3-fluorophenoxy)ethyl]amino)acetate] | 50 to 250
COCCN1C(=O)C2(NC(=O)COc3ccc(Cl)c(F)c3)CCC1(NC(=O)COc1ccc(Cl)c(F)c1)CC2 [Compound 676, N,N′-[2-(2-methoxyethyl)-3-oxo-2-azabicyclo[2.2.2]octane-1,4-diyl]bis[2-(4-chloro-3-fluorophenoxy)acetamide]] | 250 to 500
O=C(COc1ccc(Cl)c(F)c1)NC12CC(NS(=O)(=O)Cc3ccc(Cl)cc3)(C1)C2 [Compound 427, 2-(4-chloro-3-fluorophenoxy)-N-(3-{[(4-chlorophenyl)methanesulfonyl]amino}bicyclo[1.1.1]pentan-1-yl)acetamide] | 500 to 2000
CC(=O)c1ccc(OCC(=O)NC23CCC(NC(=O)COc4ccc(Cl)c(F)c4)(CC2)[C@@H](O)C3)cc1 [Compound 524, 2-(4-acetylphenoxy)-N-{(3S)-4-[2-(4-chloro-3-fluorophenoxy)acetamido]-3-hydroxybicyclo[2.2.2]octan-1-yl}acetamide] | 10 to 50
Cc1cccc(OCC(=O)NC23CC(NC(=O)COc4ccc(Cl)cc4)(C2)C3)c1 [Compound 114, 2-(4-chlorophenoxy)-N-{3-[2-(3-methylphenoxy)acetamido]bicyclo[1.1.1]-pentan-1-yl}acetamide] | 10 to 50
O=C(CNC(=O)c1ccccc1)NC12CC(NC(=O)COc3ccc(Cl)c(F)c3)(C1)C2 [Compound 492, N-[2-({3-[2-(4-chloro-3-fluorophenoxy)acetamido]bicyclo[1.1.1]pentan-1-yl}amino)-2-oxoethyl]benzamide] | > 2000
O=C(COc1cncc(C(F)(F)F)c1)NC12CC(NC(=O)COc3ccc4c(c3)OC(F)(F)O4)(C1)C2 [Compound 269, 2-[(2,2-difluoro-2H-1,3-benzodioxol-5-yl)oxy]-N-[3-(2-{[5-(trifluoromethyl)pyridin-3-yl]oxy}acetamido)bicyclo[1.1.1]pentan-1-yl]acetamide] | 10 to 50
O=C(COc1ccc(F)c(F)c1)NC12CCC(NC(=O)COc3ccc(Cl)cc3)(CC1)[C@@H](O)C2 [Compound 813, 2-(4-chlorophenoxy)-N-{(2S)-4-[2-(3,4-difluorophenoxy)acetamido]-2-hydroxybicyclo[2.2.2]octan-1-yl}acetamide] | < 10
O=C(COc1ccc(F)cc1)NC12CC(NC(=O)COc3ccc(Cl)c(F)c3)(C1)C2 [Compound 408, 2-(4-chloro-3-fluorophenoxy)-N-{3-[2-(4-fluorophenoxy)acetamido]bicyclo[1.1.1]pentan-1-yl}acetamide] | < 10
O=C(COc1cc(F)c2cn[nH]c2c1)NC12CCC(NC(=O)COc3ccc(OC(F)(F)F)c(F)c3)(CC1)[C@@H](O)C2 [Compound 724] | < 10
CC(=O)O[C@H]1CC2(NC(=O)COc3ccc(Cl)c(F)c3)CCC1(NC(=O)COc1ccc(Cl)c(F)c1)CC2 [Compound 445, (2S)-1,4-bis[2-(4-chloro-3-fluorophenoxy)acetamido]bicyclo[2.2.2]octan-2-yl acetate] | < 10
O=C(COc1ccc(Cl)c(F)c1)NC12CCC(NC(=O)COc3ccc(OC(F)F)c(F)c3)(CC1)[C@@H](O)C2 [Compound 802, 2-(4-chloro-3-fluorophenoxy)-N-[(3S)-4-{2-[4-(difluoromethoxy)-3-fluorophenoxy]acetamido}-3-hydroxybicyclo[2.2.2]octan-1-yl]acetamide] | < 10
CN(C)c1cccc(CCOCC(=O)NC23CC(NC(=O)COc4ccc(Cl)c(F)c4)(C2)C3)c1 [Compound 145, 2-(4-chloro-3-fluorophenoxy)-N-[3-(2-{2-[3-(dimethylamino)phenyl]ethoxy}-acetamido)bicyclo[1.1.1]pentan-1-yl]acetamide] | > 2000
CN1Cc2ccc(OCC(=O)NC34CCC(NC(=O)COc5ccc(Cl)c(F)c5)(CC3)[C@@H](O)C4)cc2C1=O [Compound 695, 2-(4-chloro-3-fluorophenoxy)-N-[(2S)-2-hydroxy-4-{2-[(2-methyl-3-oxo-2,3-dihydro-1H-isoindol-5-yl)oxy]acetamido}bicyclo[2.2.2]octan-1-yl]acetamide] | 500 to 2000
